{"source": "ChEMBL document CHEMBL1158413", "about": "“Design, synthesis and evaluations of acridone derivatives using Candida albicans--search for MDR modulators led to the identification of an anti-candidiasis agent” (2009)", "key": {"Candida albicans [1]": {"tested_on": "Candida albicans", "assay": "Antifungal activity against Candida albicans CAI4 at 6 ug/disk after 24 hrs by disk diffusion assay", "assay_type": "functional", "conditions": "CAI4, 24 h, read-out: DIZ"}, "DC3F/ADX [2]": {"tested_on": "DC3F/ADX", "assay": "Binding affinity to P-gp isolated from chinese hamster DC3F/ADX cells assessed as increase in ADP formation by drug-P-gp interaction assay relative to basal", "assay_type": "cell-free", "conditions": "Cricetulus griseus"}, "Candida albicans [3]": {"tested_on": "Candida albicans", "assay": "Antifungal activity against Candida albicans CAI4 at 0.5 mg/ml after 48 hrs by spot assay", "assay_type": "functional, organism-based"}, "Candida albicans [4]": {"tested_on": "Candida albicans", "assay": "Antifungal activity against Candida albicans CAI4 at 0.2 mg/ml after 48 hrs by spot assay", "assay_type": "functional, organism-based"}, "Candida albicans [5]": {"tested_on": "Candida albicans", "assay": "Antifungal activity against Candida albicans CAI4 after 48 hrs", "assay_type": "functional", "conditions": "CAI4, 48 h"}, "Candida albicans [6]": {"tested_on": "Candida albicans", "assay": "Inhibition of cell-wall integrity in Candida albicans CAI4 assessed as increase in Rhodamine-6G efflux at 230 ug/ml in absence of glucose", "assay_type": "functional, organism-based"}, "Candida albicans [7]": {"tested_on": "Candida albicans", "assay": "Antifungal activity against Candida albicans CAI4 at 160 ug/ml in presence of cell-wall toxin CR", "assay_type": "functional, organism-based"}, "DC3F/ADX [8]": {"tested_on": "DC3F/ADX", "assay": "Binding affinity to P-gp isolated from chinese hamster DC3F/ADX cells assessed as increase in ADP formation at 0.05 uM by drug-P-gp interaction assay relative to basal", "assay_type": "cell-free", "conditions": "Cricetulus griseus"}, "Candida albicans [9]": {"tested_on": "Candida albicans", "assay": "Inhibition of cell-wall integrity in Candida albicans CAI4 assessed as increase in Rhodamine-6G influx at 230 ug/ml", "assay_type": "functional, organism-based"}, "Candida albicans [10]": {"tested_on": "Candida albicans", "assay": "Antifungal activity against Candida albicans CAI4 at 160 ug/ml in presence of cell-wall toxin CFW", "assay_type": "functional, organism-based"}, "Candida albicans [11]": {"tested_on": "Candida albicans", "assay": "Inhibition of cell-wall integrity in Candida albicans CAI4 assessed as ratio of glucose/ATP-driven Rhodamine-6G efflux to Rhodamine-6G efflux in absence of glucose/ATP at 230 ug/ml relative to control", "assay_type": "functional, organism-based"}, "Candida albicans [12]": {"tested_on": "Candida albicans", "assay": "Antifungal activity against Candida albicans CAI4 at 200 ug/disk after 24 hrs by disk diffusion assay", "assay_type": "functional", "conditions": "CAI4, 24 h, read-out: DIZ"}, "Candida albicans [13]": {"tested_on": "Candida albicans", "assay": "Antifungal activity against Candida albicans CAI4 at 0.313 mg/ml after 48 hrs by spot assay", "assay_type": "functional, organism-based"}}, "note": "Active and inactive are the calls of the source. The calls are words filed in the database; no cut-off is given here."}
{"compound": "OC(Cn1cncn1)(Cn1cncn1)c1ccc(F)cc1F", "note": "[FLUCONAZOLE]", "values": [{"measurement": "zone of inhibition at 6 µg/disc", "setting": "Candida albicans [1]", "result": 15, "unit": "mm"}]}
{"compound": "Cc1cccc2c1c(=O)c1ccccc1n2CC(O)CN1CCCC1", "note": "(configuration not stated)", "values": [{"measurement": "Activity", "setting": "DC3F/ADX [2]", "result": "Active"}]}
{"compound": "O=C(O)c1cccc2c(=O)c3ccccc3n(CC(O)CN3CCCC3)c12", "note": "(configuration not stated)", "values": [{"measurement": "Activity", "setting": "DC3F/ADX [2]", "result": "Active"}]}
{"compound": "Clc1ccc(COC(Cn2ccnc2)c2ccc(Cl)cc2Cl)c(Cl)c1", "note": "(configuration not stated) [MICONAZOLE]", "values": [{"measurement": "zone of inhibition at 6 µg/disc", "setting": "Candida albicans [1]", "result": 12, "unit": "mm"}]}
{"compound": "Cc1cccc2c1c(=O)c1ccccc1n2CC(O)CN1CCOCC1", "note": "(configuration not stated)", "values": [{"measurement": "Activity", "setting": "DC3F/ADX [2]", "result": "Active"}]}
{"compound": "O=C(O)c1cccc2c(=O)c3ccccc3[nH]c12", "values": [{"measurement": "Activity", "setting": "DC3F/ADX [2]", "result": "Active"}]}
{"compound": "O=C(O)c1cccc2c(=O)c3ccccc3n(CC(O)CN3CCOCC3)c12", "note": "(configuration not stated)", "values": [{"measurement": "Activity", "setting": "DC3F/ADX [2]", "result": "Active"}, {"measurement": "Activity", "setting": "Candida albicans [3]", "result": "inactive"}, {"measurement": "Activity", "setting": "Candida albicans [4]", "result": "inactive"}, {"measurement": "MIC80", "setting": "Candida albicans [5]", "result": 132, "unit": "µg/mL"}]}
{"compound": "O=C(O)c1cccc2c(=O)c3ccccc3n(CC(O)CN3CCCCC3)c12", "note": "(configuration not stated)", "values": [{"measurement": "Activity", "setting": "DC3F/ADX [2]", "result": "Active"}, {"measurement": "Activity", "setting": "Candida albicans [3]", "result": "inactive"}, {"measurement": "Activity", "setting": "Candida albicans [4]", "result": "inactive"}, {"measurement": "MIC80", "setting": "Candida albicans [5]", "result": 405, "unit": "µg/mL"}]}
{"compound": "Cc1cccc2c1c(=O)c1ccccc1n2CC(O)CN1CCC(N2CCCCC2)CC1", "note": "(configuration not stated)", "values": [{"measurement": "Activity", "setting": "DC3F/ADX [2]", "result": "Active"}]}
{"compound": "O=C(O)c1cccc2c(=O)c3ccccc3n(CC(O)CN3CCC(N4CCCCC4)CC3)c12", "note": "(configuration not stated)", "values": [{"measurement": "Activity", "setting": "Candida albicans [6]", "result": "Active"}, {"measurement": "Activity", "setting": "Candida albicans [7]", "result": "Active"}, {"measurement": "Activity", "setting": "DC3F/ADX [8]", "result": 33, "unit": "%"}, {"measurement": "Activity", "setting": "DC3F/ADX [2]", "result": "Active"}, {"measurement": "Activity", "setting": "Candida albicans [9]", "result": "Active"}, {"measurement": "Activity", "setting": "Candida albicans [10]", "result": "Active"}, {"measurement": "Activity", "setting": "Candida albicans [11]", "result": "inactive"}, {"measurement": "MIC80", "setting": "Candida albicans [5]", "result": 234, "unit": "µg/mL"}, {"measurement": "zone of inhibition at 200 µg/disc", "setting": "Candida albicans [12]", "result": 10, "unit": "mm"}, {"measurement": "Activity", "setting": "Candida albicans [13]", "result": "Active"}]}
{"compound": "Cc1cccc2c1c(=O)c1ccccc1n2CC(O)CN1CCCCC1", "note": "(configuration not stated)", "values": [{"measurement": "Activity", "setting": "DC3F/ADX [2]", "result": "Active"}]}
{"compound": "O=C(O)c1cccc2c(=O)c3ccccc3n(CC3CO3)c12", "note": "(configuration not stated)", "values": [{"measurement": "Activity", "setting": "DC3F/ADX [2]", "result": "Active"}]}
